Measurements published in US20150313801A1, “DETECTION OF CARIOUS DENTIN TISSUE AND REMOVAL THEREOF BY MEANS OF A DENTAL INSTRUMENT” (RLS GLOBAL AB, priority 2012, published 2015).
Entries after “also recorded” stand apart in the source; their conditions may differ.

Assays:
[1] = system: carious dentin tissue; assay: Staining of carious dentin of a pre molar tooth combined with Carisolv excavation (Example 5)
Procedure: Carious dentin tissue of a pre molar tooth was treated with Carisolv® to obtain a cavity and subsequently stained with an aqueous solution of the hydrazine derivative Alexa 594. The concentration of the aqueous solution of the hydrazine derivative Alexa 594 was 15-50 mM. […] Carisolv® was added to the cavity and excavation took place with a hand instrument from Mediteam Dental AB to reach a carious free level. […] A dentist performed tactile control of this surface and confirmed that the surface was free of caries.
The slightly stained surface was subjected to treatment with Carisolv® followed by excavation with a hand instrument. […] It was therefore concluded that all carious dentin tissue of the tooth had been removed. It was concluded that a hydrazine derivative such as Alexa 594 can be used in combination with a chemical means for carious dentin tissue such as Carisolv® for selective detection and removal of carious dentin tissue.

[2] = system: carious dentin tissue in infected teeth; assay: Staining of caries-infected tooth slices, retention after NaCl and NaOH incubation (Example 2); settings: for colouring of tooth slice after NaCl and NaOH treatment (Day 4): after 1 M NaCl and 0.5 M NaOH overnight incubations, visible light, UV or fluorescence microscopy; for mode of binding to carious tissue in infected teeth (conclusion): conclusion of Example 2
Procedure: Experiments were performed during 4 days. Whole caries infected tooth was added to an ortho acryl gel, which after hardening was used as a holder prior to […] of brand Zaw Micro Tone, German). Slices, having a thickness of 150 μm, were left over night in each colour to be tested (Day one). On the second day, the colours were washed out by rinsing the slices with MQ water and the teeth sections were photographed under either a microscope (6.7×; visible light), in UV (no microscope) or under a fluorescence microscope (100×). Thereafter, an aqueous salt solution (NaCl, 1 M) was added to the slices and incubated overnight. On the third day the slices were washed with MQ water and thereafter the same detection procedures were used as described above. Finally the tooth slices were exposed to an aqueous solution of NaOH (0.5 M) over night. The washing and detection path were then repeated as described previously (Day 4).

[3] = system: carious dentin tissue; assay: Staining of carious dentin of a pre molar tooth combined with high-speed dental drill (Example 6); settings: 15-50 mM aqueous solution; Diamond/Fissure bur OB 301A FG; repeated several times
Procedure: Carious dentin tissue of a pre molar tooth stained with an aqueous solution of the hydrazine derivative Alexa 594 in a concentration of 15-50 mM was subjected to mechanical treatment by a dental drill until no staining could be visually detected. The dental drill was a high-speed dental drill Diamond/Fissure bur OB 301A FG from Plandent Forssbergs Dental, Sweden. […] The stained surface was subjected to drilling until no staining could be visually detected. A dentist examined the surface visually and with a tactile instrument and concluded that the surface was free of caries. […] Again, drilling of the stained surface took place until no staining could be observed. […] Drilling and staining as described above in this example was repeated several times. […] This is in contrast to the successful selective detection and removal of carious dentin tissue using a hydrazine derivative in combination with a chemical means for treatment of carious dentin tissue as described in Example 5.

[4] = system: carious dentin tissue; assay: FTIR of carious dentin tissue treated with hydrazine derivative (Example 3); set-up: species or system human
From the text: (§1) Extracted permanent human teeth with no previous dental restorations were selected due to their severe carious tissue status and analysed with FTIR within one week after extraction. The outermost part of the carious dental lesions was removed. The remaining dental carious tissue was divided into two layers; one outer layer with discoloured, soft and infected dental carious tissue and one inner layer that was excavated down to the observed uncoloured hard surface of the remaining healthy dentin controlled by tactile procedures.
(§2) Healthy dentin tissue and carious dentin tissue from the innermost layer were collected. This healthy dentin tissue sample and carious dentin tissue sample were then each divided into three samples.
The healthy dentin tissue sample (26 mg) was divided and treated as follows. […] Fluorescence of bounded hydrazine derivate Lucifer Yellow was checked by a UV lamp. […] The third sample, hereinafter denominated sample S3, (7 mg) and the last procedure was treated with NaBH4 (0.5 M in ethanol) and washed with concentrated ethanol to reduce aldehydes and ketones before the addition of an aqueous solution of the hydrazine derivate Lucifer Yellow (13 mM), repeated rinsing with purified water before dried and analysed. […]
(§3) Thus, in total 6 samples (three from the healthy dentin tissue and three from the carious dentin tissue) were analysed with FTIR within one week after extraction. […]

[5] = system: carious dentin tissue; assay: TOF-SIMS of carious dentin tissue treated with hydrazine derivative (Example 4)
Procedure: FTIR-ATR and TOF-SIMS analyses were performed on a sample group consisting of carious tissue inner most layers selected and estimated with an exactness of a working dentist. Samples were pooled from 4-6 teeth of inner layer of carious tissue (37 mg). The pooled sample was divided into two subgroups where one was exposed to the hydrazine derivate Lucifer Yellow and further analysed with TOF-SIMS and the other only analysed with FTIR-ATR. An aqueous solution of the hydrazine derivate Lucifer Yellow (1.8 mM) was added to the inner layer carious tissue (19 mg) and after 1 hour exposure washed with an aqueous solution of NaOH (0.5 M) and purified water before dried over vacuum. […] Each sample was attached to double side tape and analysed with a TOF-SIMS instrument (TOF-SIMS IV, CAMECA/IONTOF, GmbH, Germany). Positive secondary ion mass spectra were recorded from different areas of the sample at a size of 200×200 μm^2 and separated in a mass analyser and next compared with known mass spectra from the Ion Spec application (IonTof, GmbH, Germany, ver. 4.1) linked with the TOF-SIMS instrument. Negative secondary ion mass spectra were also recorded but gave no further information. […]
The upper spectrum was recorded for the sample of carious dentin tissue that had been milled but not subjected to treatment with hydrazine (i.e. the carious dentin tissue reference). […]

[6] = system: healthy dentin tissue; assay: FTIR of healthy dentin tissue treated with hydrazine derivative (Example 3); set-up: species or system human; settings: 13 mM aqueous solution overnight, FIGS. 3a and 3c
From the text: as §1, §2
The healthy dentin tissue sample (26 mg) was divided and treated as follows. […] Fluorescence of bounded hydrazine derivate Lucifer Yellow was checked by a UV lamp. […] The third sample, hereinafter denominated sample S3, (7 mg) and the last procedure was treated with NaBH4 (0.5 M in ethanol) and washed with concentrated ethanol to reduce aldehydes and ketones before the addition of an aqueous solution of the hydrazine derivate Lucifer Yellow (13 mM), repeated rinsing with purified water before dried and analysed.
as §3

[7] = system: smear layer on healthy dentin tissue; assay: Staining of drilled dentin of an extracted healthy tooth, smear layer detection (Examples 7 and 8)
Procedure: An extracted tooth in a healthy state with no previous dental restoration was subjected to drilling with the dental drill Cera Bur at a speed of approximately 1500 rpm. The dental drill Cera Bur was from the company Comet USA LLC and is described in EP 1 849 429. […] Therefore, the tooth was subjected to a high-speed dental drill resulting in a cavity exposing dentin tissue, i.e. a dentin tooth surface. The high speed dental drill was the high-speed dental drill Diamond/Fissure bur OB 301A FG from Plandent Forssbergs Dental, Sweden. […] The staining was visually detected using the instrument PoliLed SN06LP1121 operated at 460-470 nm, Faro.
The thus formed smear layer stained with Lucifer Yellow was subjected to drilling with the dental drill Cera Bur at a speed of approximately 1500 rpm after which rinsing with water took place. […] It was concluded that the Cera Bur drill removed the smear layer and the resulting dentin tissue was free of smear layer.
It was concluded that the dentin tooth surface was free of smear layer. […]
An extracted tooth in a healthy state with no previous dental restoration was subjected to a high-speed dental drill resulting in a cavity exposing dentin tissue, i.e. a dentin tooth surface. […] The staining was visually detected using the instrument PoliLed SN06LP1121 operated at 460-470 nm, Faro. […]

[8] = system: healthy dentin tissue; assay: TOF-SIMS of healthy dentin tissue treated with hydrazine derivative (Example 4); settings: TOF-SIMS positive spectra

## 6-(2-carboxy-5-(hydrazinecarbonyl)phenyl)-1,2,2,10,10,11-hexamethyl-2,10-dihydro-1H-pyrano[3,2-g]diquinoline-11-ium-4,8-diyl)methanesulfonate [Alexa Fluor® 594]
[1]
  detection of carious dentin tissue compared with tactile control by a dentist: better and more sensitive
[1]; 15-50 mM aqueous solution, cavity obtained with Carisolv
  staining of carious cavity: intense dark bluish colour
[1]; after Carisolv and hand-instrument excavation
  staining of surface judged caries free by tactile control: very slight staining
[1]; final staining attempt
  staining after second Carisolv treatment and excavation: no staining took place
[2]
  colouring of tooth slice after NaCl and NaOH treatment (Day 4): still contained colourants
  mode of binding to carious tissue in infected teeth (conclusion): bind irreversibly
[2]; listed as Alexa Fluor 594 ®
  colouring of tooth slice after NaCl and NaOH treatment (Day 4): staining
[3]
  staining after drilling with high-speed dental drill: staining always took place

## NNC(=O)CSCC(=O)Nc1ccc(-c2c3ccc(=O)cc-3oc3cc(O)ccc23)c(C(=O)O)c1 [5-(2-2-hydrazinyl-2-oxoethylthio)acetamido)-2-(3-hydroxy-6-oxo-6H-xanthen-9-yl)benzoic acid]
[2]
  colouring of tooth slice after NaCl and NaOH treatment (Day 4): still contained colourants; also recorded: staining
  mode of binding to carious tissue in infected teeth (conclusion): bind irreversibly

## CC(=O)Nc1cc(S(=O)(=O)[O-])cc2cc(S(=O)(=O)[O-])c(/N=N/c3ccccc3)c(O)c12.[Na+].[Na+] [Acid red 1]
[2]; 150 μm slices left overnight in colour, MQ rinse, 1 M NaCl overnight
  staining of tooth slice after incubation with 1 M NaCl: only little staining remained
[2]
  colouring of tooth slice after NaCl and NaOH treatment (Day 4): no colouring
  mode of binding to carious tissue in infected teeth (conclusion): binds in a reversible way
[2]; rinsing, general statement of the description
  effect of rinsing on dye-labelled carious dentin tissue: release of the dye bonded to the carious dentin tissue

## Cc1c(CC(=O)NN)c(=O)oc2cc(N)c(S(=O)(=O)O)cc12 [Alexa 350]
[2]
  colouring of tooth slice after NaCl and NaOH treatment (Day 4): still contained colourants
  mode of binding to carious tissue in infected teeth (conclusion): bind irreversibly

## NNC(=O)NN1C(=O)c2cc(S(=O)(=O)O)cc3c(N)c(S(=O)(=O)O)cc(c23)C1=O [Lucifer Yellow]
[4]; FTIR conclusion
  selectivity carious versus healthy dentin tissue: selectively reacts with carious dentin tissue
[4]; FTIR, peak at 1740 cm-1 no longer present, FIG. 3d
  reaction with carious dentin tissue: reaction has taken place
[5]; TOF-SIMS conclusion
  selectivity carious versus healthy dentin tissue: selectively reacts with carious dentin tissue
[5]; TOF-SIMS positive spectra, 1.8 mM, 1 hour exposure, NaOH wash
  bonding to carious dentin tissue: covalently bonded
[2]
  colouring of tooth slice after NaCl and NaOH treatment (Day 4): still contained colourants
  mode of binding to carious tissue in infected teeth (conclusion): bind irreversibly
[2]; listed as Lucifer Yellow sodium salt
  colouring of tooth slice after NaCl and NaOH treatment (Day 4): staining
[6]
  reaction with healthy dentin tissue: no reaction takes place
[7]; aqueous solution 15-50 mM, 1500 rpm, rinsing with water
  staining after drilling the smear layer with round type steel dental drill: resulted in staining
[7]; smear layer formed by high-speed dental drill on healthy tooth
  staining of smear layer (conclusion): stained this smear layer
[8]
  reaction with healthy dentin: did not react with healthy dentin
